Experimental data taken from patent US6943016B1, “Human adult astrocytes, their preparation and uses thereof” (Aventis Pharma S.A., priority 1999, dated 2005).

Test system: human adult astrocytes
Assay: TH activity in transduced human adult astrocytes (enzymatic assay of Reinhard et al.)
Assay type: cell-based
Details: AdPGKtet hTH-1-infected astrocytes, doxycycline 10 ng/ml
Experimental: The medium was renewed every second day.
Three, 7 and 14 days after infection, cells were harvested and processed to measure TH activity and evaluate L-Dopa production. TH activity of cell pellets was assayed as previously described (Reinhard et al. 1986). The production of L-Dopa was assessed after growing human astrocytes for 24 h in DMEM/F12 without FCS. Conditioned media was collected, and 0.5 ml aliquots were mixed with an alumina suspension (40 mg/ml) in 0.05 M Tris-HCl, pH 8.6. Each mixture was then continuously stirred for 10 min, washed with the Tris-HCl buffer, and the alumina finally collected by centrifugation (800 g, 5 min. 4° C.). Catechols adsorbed onto the alumina gel were eluted with 0.6 N perchloric acid (0.1 ml per sample), and the eluate was neutralized with 2 M potassium phosphate pH 7.4 (20 μl per sample). After centrifugation (30 000 g, 15 min, 4° C.), 10 μl aliquots of the cleared supernatant were injected into a high performance liquid chromatography column (Ultrasphere IP, 25 cm, 0.46 cm outer diameter, 5 μm) for the electrochemical quantification of L-Dopa, as described in detail elsewhere (Adrien et al., 1989).

C[C@H]1c2cccc(O)c2C(=O)C2=C(O)[C@]3(O)C(=O)C(C(N)=O)=C(O)[C@@H](N(C)C)[C@@H]3[C@@H](O)[C@@H]21 [doxycycline]
decrease of TH activity in the presence of doxycycline (14 days post-infection): at least 10 fold | TH activity in doxycycline-treated cells (day 14): 3,590 pmol/mg prot/h
